Assay results as given in PubChem BioAssay (NCI).
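Method: 48-hour compound exposure of cells in 96-well plates, five concentrations, linear interpolation of endpoints. Here, GI50 denotes the concentration required for 50% inhibition of growth. The concentration for full growth arrest is given as TGI.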

Assays:
Test in all cases: DTP human tumour cell line panel, 48 h
CCRF-CEM leukemia = system: CCRF-CEM leukemia
ACHN renal = system: ACHN renal
TK-10 renal = system: TK-10 renal
HOP-92 NSCLC = system: HOP-92 NSCLC
SK-OV-3 ovarian = system: SK-OV-3 ovarian
KM12 colon = system: KM12 colon
SF-268 CNS = system: SF-268 CNS
BT-549 breast = system: BT-549 breast
SF-539 CNS = system: SF-539 CNS
RPMI-8226 leukemia = system: RPMI-8226 leukemia
COLO 205 colon = system: COLO 205 colon
HCC-2998 colon = system: HCC-2998 colon
HS 578T breast = system: HS 578T breast
HT29 colon = system: HT29 colon
PC-3 prostate = system: PC-3 prostate
NCI-H226 lung = system: NCI-H226 lung
MDA-MB-231 breast = system: MDA-MB-231 breast
HL-60(TB) leukemia = system: HL-60(TB) leukemia
OVCAR-4 ovarian = system: OVCAR-4 ovarian
NCI/ADR-RES ovarian = system: NCI/ADR-RES ovarian
SF-295 CNS = system: SF-295 CNS
T-47D breast = system: T-47D breast
UACC-62 melanoma = system: UACC-62 melanoma
SK-MEL-5 melanoma = system: SK-MEL-5 melanoma
SR leukemia = system: SR leukemia
U251 CNS = system: U251 CNS
NCI-H23 lung = system: NCI-H23 lung
MDA-MB-435 = system: MDA-MB-435
A498 renal = system: A498 renal
SW-620 colon = system: SW-620 colon
MOLT-4 leukemia = system: MOLT-4 leukemia
OVCAR-8 ovarian = system: OVCAR-8 ovarian
786-0 renal = system: 786-0 renal
MCF7 breast = system: MCF7 breast
UACC-257 melanoma = system: UACC-257 melanoma
MALME-3M melanoma = system: MALME-3M melanoma
NCI-H522 lung = system: NCI-H522 lung
SK-MEL-28 melanoma = system: SK-MEL-28 melanoma
HCT-116 colon = system: HCT-116 colon
SK-MEL-2 melanoma = system: SK-MEL-2 melanoma
OVCAR-5 ovarian = system: OVCAR-5 ovarian
M14 melanoma = system: M14 melanoma
SNB-19 CNS = system: SNB-19 CNS
IGROV1 ovarian = system: IGROV1 ovarian
OVCAR-3 ovarian = system: OVCAR-3 ovarian
NCI-H460 lung = system: NCI-H460 lung
SNB-75 CNS = system: SNB-75 CNS
CAKI-1 renal = system: CAKI-1 renal
K-562 leukemia = system: K-562 leukemia
A549 NSCLC = system: A549 NSCLC
SN12C renal = system: SN12C renal
RXF 393 renal = system: RXF 393 renal
HCT-15 colon = system: HCT-15 colon
DU-145 prostate = system: DU-145 prostate
UO-31 renal = system: UO-31 renal
HOP-62 NSCLC = system: HOP-62 NSCLC

## O=C1Nc2ccccc2/C1=C\c1c[nH]c2ccc(Br)cc12
CCRF-CEM leukemia
  GI50: 3.18 µM
  TGI: 10.5 µM
ACHN renal
  GI50: 2.82 µM
  TGI: 10.1 µM
TK-10 renal
  GI50: 3.99 µM
  TGI: 9.5 µM
HOP-92 NSCLC
  GI50: 0.573 µM
  TGI: 3.3 µM
SK-OV-3 ovarian
  GI50: 3.63 µM
  TGI: 15 µM
KM12 colon
  GI50: 0.633 µM
  TGI: 2.37 µM
SF-268 CNS
  GI50: 3.3 µM
  TGI: 16.2 µM
BT-549 breast
  GI50: 4.26 µM
  TGI: 19.5 µM
SF-539 CNS
  GI50: 4.77 µM
  TGI: 17.1 µM
RPMI-8226 leukemia
  GI50: 2.32 µM
  TGI: 7.93 µM
COLO 205 colon
  GI50: 1.77 µM
  TGI: 3.23 µM
HCC-2998 colon
  GI50: 1.86 µM
  TGI: 3.45 µM
HS 578T breast
  GI50: 2.2 µM
  TGI: 8.33 µM
HT29 colon
  GI50: 2.75 µM
  TGI: 6.56 µM
PC-3 prostate
  GI50: 2.42 µM
  TGI: 10.3 µM
NCI-H226 lung
  GI50: 6.23 µM
  TGI: 41.9 µM
MDA-MB-231 breast
  GI50: 1.63 µM
  TGI: 3.24 µM
HL-60(TB) leukemia
  GI50: 2.79 µM
  TGI: 7.88 µM
OVCAR-4 ovarian
  GI50: 2.7 µM
  TGI: 22.5 µM
NCI/ADR-RES ovarian
  GI50: 2.49 µM
  TGI: 7.04 µM
SF-295 CNS
  GI50: 3.99 µM
  TGI: 21.6 µM
T-47D breast
  GI50: 3.65 µM
  TGI: 30.3 µM
UACC-62 melanoma
  GI50: 1.71 µM
  TGI: 3.72 µM
SK-MEL-5 melanoma
  GI50: 4.41 µM
  TGI: 17.2 µM
SR leukemia
  GI50: 2.59 µM
  TGI: 6.32 µM
U251 CNS
  GI50: 2.39 µM
  TGI: 7.09 µM
NCI-H23 lung
  GI50: 1.92 µM
  TGI: 5.61 µM
MDA-MB-435
  GI50: 2.44 µM
  TGI: 6.89 µM
A498 renal
  GI50: 1.88 µM
  TGI: 6.31 µM
SW-620 colon
  GI50: 2.89 µM
  TGI: 10.7 µM
MOLT-4 leukemia
  GI50: 2.76 µM
  TGI: 8.6 µM
OVCAR-8 ovarian
  GI50: 2.85 µM
  TGI: 10.4 µM
786-0 renal
  GI50: 3.82 µM
  TGI: 14.7 µM
MCF7 breast
  GI50: 2.43 µM
  TGI: 11.2 µM
UACC-257 melanoma
  GI50: 2.91 µM
  TGI: 14.5 µM
MALME-3M melanoma
  GI50: 5.55 µM
  TGI: 25.1 µM
NCI-H522 lung
  GI50: 1.83 µM
  TGI: 3.77 µM
SK-MEL-28 melanoma
  GI50: 4.16 µM
  TGI: 20.9 µM
HCT-116 colon
  GI50: 1.61 µM
  TGI: 3.11 µM
SK-MEL-2 melanoma
  GI50: 1.99 µM
  TGI: 4.41 µM
OVCAR-5 ovarian
  GI50: 2.26 µM
  TGI: 5.86 µM
M14 melanoma
  GI50: 1.67 µM
  TGI: 3.68 µM
SNB-19 CNS
  GI50: 3.71 µM
  TGI: 25.5 µM
IGROV1 ovarian
  GI50: 2.57 µM
  TGI: 11.2 µM
OVCAR-3 ovarian
  GI50: 2.29 µM
  TGI: 5.58 µM
NCI-H460 lung
  GI50: 2.11 µM
  TGI: 4.98 µM
SNB-75 CNS
  GI50: 2.68 µM
  TGI: 9.37 µM
CAKI-1 renal
  GI50: 2.67 µM
  TGI: 13.6 µM
K-562 leukemia
  GI50: 3.26 µM
  TGI: 8 µM
A549 NSCLC
  GI50: 2.26 µM
  TGI: 6.23 µM
SN12C renal
  GI50: 2.63 µM
  TGI: 7.6 µM
RXF 393 renal
  GI50: 3.01 µM
  TGI: 8.72 µM
HCT-15 colon
  GI50: 2.12 µM
  TGI: 5.59 µM
DU-145 prostate
  GI50: 3.23 µM
  TGI: 11 µM
UO-31 renal
  GI50: 2.22 µM
  TGI: 8.79 µM
HOP-62 NSCLC
  GI50: 3.5 µM
  TGI: 13.3 µM
